Assay [1] is described as follows: Cytotoxicity against human MiaPaCa cells after 72 hrs by MTT assay. The class given is cell-based. The note with it: MIA PaCa-2, 72 h. In general terms: Tetrazolium dyes change colour on reduction, which living cells bring about.
The target in assay [2] is Beta-lactamase VIM-2 (Pseudomonas aeruginosa) (UniProt Q9K2N0). The experiment in a line: Inhibition of beta-lactamase VIM-2 in Pseudomonas aeruginosa assessed as potentiation of meropenem-induced antibacterial activity by measuring meropenem MIC at 16 uM after 20 hrs by broth microdilution assay (meropenem alone = 32 to 64 mg/L). On the technique in general: Broth dilution looks for growth in wells or tubes with falling amounts of substance.

Assay [3] is described as follows: Binding affinity to zinc assessed as dissociation constant for compound-metal complex.
Assay [4] deals with Beta-lactamase VIM-2 (Pseudomonas aeruginosa) (UniProt Q9K2N0). The experiment in a line: Inhibition of beta-lactamase VIM-2 in Pseudomonas aeruginosa assessed as potentiation of meropenem-induced antibacterial activity by measuring meropenem MIC at 31 uM after 20 hrs by broth microdilution assay (meropenem alone = 32 to 64 mg/L).
Assay [5] has the same target. The experiment in a line: Inhibition of beta-lactamase VIM-2 in Pseudomonas aeruginosa assessed as potentiation of meropenem-induced antibacterial activity by measuring meropenem MIC at 125 uM after 20 hrs by broth microdilution assay (meropenem alone = 32 to 64 mg/L).
The target of assay [6] is Metallo-beta-lactamase type 2 (Klebsiella pneumoniae) (UniProt C7C422). The experiment in a line: Inhibition of NDM1 in Pseudomonas aeruginosa assessed as potentiation of meropenem-induced antibacterial activity by measuring meropenem MIC at 125 uM after 20 hrs by broth microdilution assay (meropenem alone = 32 to 64 mg/L).
Chain of Metallo-beta-lactamase type 2 (Klebsiella pneumoniae) (C7C422 whole entry): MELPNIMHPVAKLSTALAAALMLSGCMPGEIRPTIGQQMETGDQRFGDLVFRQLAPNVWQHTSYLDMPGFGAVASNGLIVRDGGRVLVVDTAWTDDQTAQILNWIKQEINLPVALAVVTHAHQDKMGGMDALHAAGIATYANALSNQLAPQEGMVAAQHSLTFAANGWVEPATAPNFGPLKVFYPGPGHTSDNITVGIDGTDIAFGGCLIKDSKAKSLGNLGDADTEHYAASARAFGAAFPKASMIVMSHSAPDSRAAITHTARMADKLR
In another assay the test system is COLO357. Put plainly: Cytotoxicity against human Colo-357 cells after 72 hrs by MTT assay. The format is cell-based. The note with it: COLO357, 72 h.
Assay [7] has as its target Metallo-beta-lactamase type 2 (Klebsiella pneumoniae) (UniProt C7C422). Put plainly: Inhibition of NDM1 in Pseudomonas aeruginosa assessed as potentiation of meropenem-induced antibacterial activity by measuring meropenem MIC at 31 uM after 20 hrs by broth microdilution assay (meropenem alone = 32 to 64 mg/L).
Another assay concerns MDA-MB-231. Put plainly: Cytotoxicity against human MDA-MB-231 cells after 72 hrs by MTT assay. The note with it: MDA-MB-231, 72 h. The format is cell-based.
The subject of another assay is HepG2. Put plainly: Cytotoxicity against human HepG2 cells after 72 hrs by MTT assay. The class given is cell-based. To be noted: HepG2, 72 h.
Assay [8] addresses Metallo-beta-lactamase type 2 (Klebsiella pneumoniae) (UniProt C7C422). The experiment in a line: Inhibition of NDM1 in Pseudomonas aeruginosa assessed as potentiation of meropenem-induced antibacterial activity by measuring meropenem MIC at 16 uM after 20 hrs by broth microdilution assay (meropenem alone = 32 to 64 mg/L).
Assay [9] deals with Beta-lactamase VIM-2 (Pseudomonas aeruginosa) (UniProt Q9K2N0). Put plainly: Inhibition of beta-lactamase VIM-2 in Pseudomonas aeruginosa assessed as potentiation of meropenem-induced antibacterial activity by measuring meropenem MIC at 50 uM after 20 hrs by broth microdilution assay (meropenem alone = 32 to 64 mg/L).
Assay [10] concerns the target Metallo-beta-lactamase type 2 (Klebsiella pneumoniae) (UniProt C7C422). Put plainly: Inhibition of NDM1 in Pseudomonas aeruginosa assessed as potentiation of meropenem-induced antibacterial activity by measuring meropenem MIC at 50 uM after 20 hrs by broth microdilution assay (meropenem alone = 32 to 64 mg/L).

For `C[C@@H](N)C(=O)N[C@H](C)C(=O)NCCc1ccc(NC(=O)CN(CCN(Cc2ccccn2)Cc2ccccn2)Cc2ccccn2)cc1.Cl`, the IC50 (commonly the point on the concentration scale where inhibition reaches its midpoint) in assay [1] turned out to be 4.8 µM; in the assay with COLO357 it was 6.8 µM; in the assay on MDA-MB-231, 4.9 µM; in the assay on HepG2 it was 13.6 µM. Moreover, the MIC was 32 µg/mL in assay [2]; 2 µg/mL in assay [4]; 2 µg/mL in [5]; 0.125 µg/mL in assay [6]; 0.125 µg/mL in [7]; 8 µg/mL in assay [8]. Moreover, the negative logarithm of the Kd (pKd) (commonly the negative decadic logarithm of the Kd, by convention in mol/L) in assay [3] was determined as 12.3.
For the compound `COC(=O)[C@@H](C)NC(=O)[C@@H](C)NC(=O)CN(C)CCN(Cc1ccccn1)Cc1ccccn1`, the IC50 is 5.1 µM in assay [1], 4.3 µM in the assay with COLO357, 4.5 µM in the assay with MDA-MB-231 and 6.83 µM in the assay on HepG2. Besides, the MIC is 32 µg/mL in assay [2]; 1 to 2 µg/mL in assay [4]; 0.125 µg/mL in [7]; 1 µg/mL in [9]; 16 µg/mL in [8]; 0.125 µg/mL in assay [10]. Also, in assay [3], the pKd is on record as 11.8.

These data come from ChEMBL document CHEMBL4480377, “Synthesis and biological evaluation of zinc chelating compounds as metallo-β-lactamase inhibitors” (Medchemcomm, 2019).
